Experimental data from patent US7759486B2, “2,4,5-Trisubstituted pyrimidine compounds” (GlaxoSmithKline LLC, priority 2000, dated 2010).

Compound `Cc1cc(F)ccc1-c1nc(O)nc2c1ccc(=O)n2-c1ccccc1F` (hydrate or solvate) [Example 144, 2-Hydroxy-4-(4-fluoro-2-methylphenyl)-8-(2-fluorophenyl)-8H-pyrido[2,3-d]pyrimidin-7-one] has a melting point greater than 280 °C.
For `CCNC(=O)CNc1nc(-c2ccc(F)cc2C)c2ccc(=O)n(-c3c(F)cccc3F)c2n1` [Example 192], the melting point was 250 to 253 °C (dec.).
`Cc1cc(F)ccc1-c1nc(Nc2c[nH]c(=O)[nH]c2=O)nc2c1ccc(=O)n2-c1c(F)cccc1F` [Example 168, 8-(2,6-Difluorophenyl)-4-(4-fluoro-2-methylphenyl)-2-(N-aminouracil-5-yl)-8H-pyrido[2,3-d]pyrimidin-7-one] gave a melting point greater than 300 °C.
For `Cc1cc(F)ccc1-c1nc(NCCNS(C)(=O)=O)nc2c1ccc(=O)n2-c1c(F)cccc1F` [Example 189, N-[2-[[8-(2,6-Difluorophenyl)-4-(4-fluoro-2-methylphenyl)-7,8-d hydro-7-oxopyrido[2,3-d]pyrimidin-2-yl]amino]ethyl]methanesulfonamide], the melting point was 105 to 115 °C (dec.).

First: Cc1cc(F)ccc1-c1nc(NC2CCCCC2)nc2c1ccc(=O)n2-c1ccccc1F [Example 145, 2-Cyclohexylamino-4-(4-fluoro-2-methylphenyl)-8-(2-fluorophenyl)-5H-pyrido[2,3-d]pyrimidin-7-one]
Second: Cc1cc(F)ccc1-c1nc(NC2CCOCC2)nc2c1ccc(=O)n2-c1ccccc1F [Example 146, 2-(Tetrahydropyran-4-ylamino)-4-(4-fluoro-2-methylphenyl)-8-(2-fluorophenyl)-8H-pyrido[2,3-d]pyrimidin-7-one]
The melting point of the first is lower: 181 to 182 °C for the first, 211 to 212 °C for the second.

First: Cc1cc(F)ccc1-c1nc(NCCNC(=O)NC2CCCCC2)nc2c1ccc(=O)n2-c1c(F)cccc1F [Example 160, 1-[2-[8-(2,6-Difluorophenyl)-4-(4-fluoro-2-methylphenyl)-7-oxo-7,8-dihydro-pyrido[2,3-d]pyrimidin-2-ylamino]ethyl]-3-cyclohexylurea]
Second: Cc1cc(F)ccc1-c1nc(NC2CCCCC2)nc2c1ccc(=O)n2-c1c(F)cccc1F [Example 148, 2-Cyclohexylamino-4-(4-fluoro-2-methylphenyl)-8-(2,6-difluorophenyl)-8H-pyrido[2,3-d]pyrimidin-7-one]
The melting point of the first is lower: 178 to 183 °C for the first, 218 to 219 °C for the second.

First: Cc1cc(F)ccc1-c1nc(NCC(F)(F)F)nc2c1ccc(=O)n2-c1ccccc1F [Example 150, 2-(2,2,2-Trifluoroethylamino)-4-(4-fluoro-2-methylphenyl)-8-(2-fluorophenyl)-8H-pyrido[2,3-d]pyrimidin-7-one]
Second: CCNc1nc(-c2ccc(F)cc2C)c2ccc(=O)n(-c3ccccc3F)c2n1 [Example 140, 2-Ethylamino-4-(4-fluoro-2-methylphenyl)-8-(2-fluorophenyl)-8H-pyrido[2,3-d]pyrimidin-7-one]
The melting point of the first is higher: 187 to 188 °C for the first, 176 to 177 °C for the second.

First: CCNc1nc(-c2ccc(F)cc2C)c2ccc(=O)n(-c3c(F)cccc3F)c2n1 [Example 147, 2-Ethylamino-4-(4-fluoro-2-methylphenyl)-8-(2,6-difluorophenyl)-8H-pyrido[2,3-d]pyrimidin-7-one]
Second: Cc1cc(F)ccc1-c1nc(NCC(=O)O)nc2c1ccc(=O)n2-c1c(F)cccc1F [Example 191, N-[8-(2,6-Difluorophenyl)-4-(4-fluoro-2-methylphenyl)-7,8-dihydro-7-oxopyrido[2,3-d]pyrimidin-2-yl]glycine]
The melting point of the first is lower: 195 to 196 °C for the first, 260 to 261 °C for the second.

Compared with `COC(=O)CNc1nc(-c2ccc(F)cc2C)c2ccc(=O)n(-c3c(F)cccc3F)c2n1` [Example 190, Methyl N-[8-(2,6-difluorophenyl)-4-(4-fluoro-2-methylphenyl)-7,8-dihydro-7-oxopyrido[2,3-d]pyrimidin-2-yl] glycinate], `Cc1cc(F)ccc1-c1nc(NC(C)(C)CO)nc2c1ccc(=O)n2-c1c(F)cccc1F` [Example 139, 4-(4-fluoro-2-methylphenyl)-8-(2,6-difluorophenyl)-2-(1,1-dimethyl-2-hydroxyethylamino)-8H-pyrido[2,3-d]pyrimidin-7-one] is lower in melting point: 212 to 213 °C for the first, 99 to 105 °C for the second.

Compared with `Cc1cc(F)ccc1-c1nc(NC(C)(CO)CO)nc2c1ccc(=O)n2-c1ccccc1F` [Example 152, 2-(1-hydroxymethyl-1-methyl-2-hydroxyethylamino)-4-(4-fluoro-2-methylphenyl)-8-(2-fluorophenyl)-8H-pyrido[2,3-d]pyrimidin-7-one], `Cc1cc(F)ccc1-c1nc(NC(C)(C)CO)nc2c1ccc(=O)n2-c1ccccc1F` [Example 143, 2-(1,1-dimethyl-2-hydroxyethylamino)-4-(4-fluoro-2-methylphenyl)-8-(2 fluorophenyl)-8H-pyrido[2,3-d]pyrimidin-7-one] is lower in melting point: 160 to 162 °C for the first, 106 to 112 °C for the second.

`Cc1cc(F)ccc1-c1nc(N[C@H](C)CO)nc2c1ccc(=O)n2-c1ccccc1F` [Example 142, (R)-4-(4-fluoro-2-methylphenyl)-8-(2-fluorophenyl)-2-[(1-hydroxyprop-2-yl)amino]-8H-pyrido[2,3-d]pyrimidin-7-one] and `Cc1cc(F)ccc1-c1nc(N[C@@H](C)CO)nc2c1ccc(=O)n2-c1ccccc1F` [Example 141, (S)-4-(4-fluoro-2-methylphenyl)-8-(2-fluorophenyl)-2-[(1-hydroxyprop-2-yl)amino]-8H-pyrido[2,3-d]pyrimidin-7-one] cannot be ordered by melting point: 116 to 122 °C for the first, 114 to 120 °C for the second.

First: Cc1cc(F)ccc1-c1nc(NC(C)(CO)CO)nc2c1ccc(=O)n2-c1c(F)cccc1F [Example 154, 2-(1-hydroxymethyl-1-methyl-2-hydroxyethylamino)-4-(4-fluoro-2-methylphenyl)-8-(2,6-difluorophenyl)-8H-pyrido[2,3-d]pyrimidin-7-one]
Second: Cc1cc(F)ccc1-c1nc(N[C@@H](C)CO)nc2c1ccc(=O)n2-c1c(F)cccc1F [Example 137, (S)-4-(4-fluoro-2-methylphenyl)-8-(2,6-difluorophenyl)-2-[(1-hydroxyprop-2-yl)amino]-8H-pyrido[2,3-d]pyrimidin-7-one]
The melting point of the first is higher: 158 to 160 °C for the first, 96 to 101 °C for the second.

First: Cc1cc(F)ccc1-c1nc(NCCNC(=O)c2ccccc2)nc2c1ccc(=O)n2-c1c(F)cccc1F [Example 163, 8-(2,6-Difluorophenyl)-4-(4-fluoro-2-methylphenyl)-2-[N-(2-aminoethyl)-3-benzamido]-8H-pyrido[2,3-d]pyrimidin-7-one]
Second: Cc1cc(F)ccc1-c1nc(NCCNC(=O)Nc2ccccc2)nc2c1ccc(=O)n2-c1c(F)cccc1F [Example 159]
The melting point of the first is higher: 246 to 248 °C for the first, 142 to 148 °C for the second.

Compared with `Cc1cc(F)ccc1-c1nc(NCC(F)(F)F)nc2c1ccc(=O)n2-c1c(F)cccc1F` [Example 153, 2-(2,2,2-Trifluoroethylamino)-4-(4-fluoro-2-methylphenyl)-8-(2,6-difluorophenyl)-8H-pyrido[2,3-d]pyrimidin-7-one], `Cc1cc(F)ccc1-c1nc(OCCN)nc2c1ccc(=O)n2-c1c(F)cccc1F` [Example 131, 8-(2,6-Difluorophenyl)-4-(4-fluoro-2-methylphenyl)-2-(2-aminoethoxy)-8H-pyrido[2,3-d]pyrimidin-7-one] is lower in melting point: 195 to 196 °C for the first, 96 to 99 °C for the second.

`Cc1cc(F)ccc1-c1nc(NCCNC(=O)Nc2cccc(F)c2)nc2c1ccc(=O)n2-c1c(F)cccc1F` [Example 161, 1-[2-[8-(2,6-Difluorophenyl)-4-(4-fluoro-2-methylphenyl)-7-oxo-7,8-dihydro-pyrido[2,3-d]pyrimidin-2-ylamino]ethyl]-3-[3-fluorophenyl]urea] and `CCNC(=O)NCCNc1nc(-c2ccc(F)cc2C)c2ccc(=O)n(-c3c(F)cccc3F)c2n1` [Example 158, 1-[2-[8-(2,6-Difluorophenyl)-4-(4-fluoro-2-methylphenyl)-7-oxo-7,8-dihydro-pyrido[2,3-d]pyrimidin-2-ylamino]ethyl]-3-ethylurea] cannot be ordered by melting point: 131 to 144 °C for the first, 130 to 133 °C for the second.

Compared with `CCOc1nc(-c2ccc(F)cc2C)c2ccc(=O)n(-c3ccccc3F)c2n1` [Example 156, 2-Ethoxy-4-(4-fluoro-2-methylphenyl)-8-(2-fluorophenyl)-8H-pyrido[2,3-d]pyrimidin-7-one], `Cc1cc(F)ccc1-c1nc(NCCO)nc2c1ccc(=O)n2-c1ccccc1F` [Example 136, 4-(4-fluoro-2-methylphenyl)-8-(2-fluorophenyl)-2-(2-hydroxylethylamino)-5H-pyrido[2,3-d]pyrimidin-7-one] is lower in melting point: 137 to 139 °C for the first, 120 to 124 °C for the second.

First: CSCCCOc1nc(-c2ccc(F)cc2C)c2ccc(=O)n(-c3c(F)cccc3F)c2n1 [Example 127, 8-(2,6-Difluorophenyl)-4-(4-fluoro-2-methylphenyl)-2-(3-methylsulfanylpropoxy)-8H-pyrido[2,3-d]pyrimidin-7-one]
Second: Cc1cc(F)ccc1-c1nc(OCCNS(C)(=O)=O)nc2c1ccc(=O)n2-c1c(F)cccc1F [Example 134, 8-(2,6-Difluorophenyl)-4-(4-fluoro-2-methylphenyl)-2-(2-methanesulfonyl-aminoethoxy)-8H-pyrido[2,3-d]pyrimidin-7-one]
The melting point of the first is higher: 127 to 128 °C for the first, 95 to 99 °C for the second.

Compared with `Cc1cc(F)ccc1-c1nc(NC2CCOCC2)nc2c1ccc(=O)n2-c1c(F)cccc1F` [Example 149, 2-(Tetrahydropyran-4-ylamino)-4-(4-fluoro-2-methylphenyl)-8-(2,6-difluorophenyl)-8H-pyrido[2,3-d]pyrimidin-7-one], `Cc1cc(F)ccc1-c1nc(N[C@H]2CC[C@H](O)CC2)nc2c1ccc(=O)n2-c1c(F)cccc1F` [Example 155, trans-2-(4-Hydroxycyclohexylamino)-4-(4-fluoro-2-methylphenyl)-8-(2,6-difluorophenyl)-8H-pyrido[2,3-d]pyrimidin-7-one] is lower in melting point: 231 to 232 °C for the first, 158 to 160 °C for the second.

`Cc1cc(F)ccc1-c1nc(OCCNC(=O)OC(C)(C)C)nc2c1ccc(=O)n2-c1c(F)cccc1F` [Example 130, 8-(2,6-Difluorophenyl)-4-(4-fluoro-2-methylphenyl)-2-[2-(tert-butoxycarbonylamino)ethoxy]-8H-pyrido[2,3-d]pyrimidin-7-one] gave a melting point of 103 to 105 °C.
